Results from publication PMC10187093, “Synthesis, in silico modelling, and in vitro biological evaluation of substituted pyrazole derivatives as potential anti-skin cancer, anti-tyrosinase, and antioxidant agents” (Journal of Enzyme Inhibition and Medicinal Chemistry, 2023).

Tests used:
Assay type in all cases: cell-based, human
A375 = assay: MTT antiproliferative/cytotoxicity assay, A375; conditions: Homo sapiens, A-375, 48 h, melanoma, MTT, 48 h; read-out: IC50 A375
Experimental: (§1) Human-derived GFP-expressing melanoma A375 and epidermoid carcinoma A431 cell lines were purchased from Angio-Proteomie (Boston, MA). Human melanoma carcinoma SK-MEL-28 and human immortalised keratinocytes (HaCaT) cell lines were acquired from American Type Culture Collection (ATCC; Manassas, VA). Human cutaneous SCC cell line SCC-12[192] was generously provided by Dr. James G. Rheinwald to Dr. Tatiana Efimova. Except SK-MEL-28, which was cultured in an RPMI-1640 medium supplemented with 5% FBS, all other human immortalised cell lines were grown and maintained in DMEM containing varying percentages of FBS; 5% FBS for A431, SCC-12, and HaCaT lines, and 10% FBS for A375. All culture media were routinely supplemented with 1% PEST 100X (100 U/mL penicillin, 100 μg/mL streptomycin), and cells were cultured in incubators maintained at 37 °C under an atmosphere of 95% humidity, 20% O2, and 5% CO2. The growth media of incubated cells were changed every 2–3 days until they attained 70–80% confluence, after which they were sub-cultured for experiments and re-passaging. DMSO was used as the vehicle to prepare a 10 mM stock solution of the test compounds.
(§2) Stock solutions (10 mM) were prepared by dissolving each compound to be screened in DMSO. From these stock solutions, escalating concentrations were prepared using the corresponding cell growth media as a diluent, and the cells (65–75% confluent) were treated with (0–40 µM) or without the drug in sext- to octuplicate and incubated for 48 h. All treatment protocols and controls were prepared as previously described.
(§3) The potency and cytotoxicity of the test compounds against two cutaneous melanoma (A375 and SK-MEL-28) and two non-melanoma (A431 and SCC-12) SC cell lines in addition to a control immortalised normal human epidermal keratinocytes (HaCaT) cell line were assessed by MTT assay as previously described.

SCC-12 = assay: MTT antiproliferative/cytotoxicity assay, SCC-12
Experimental: (§4) Human-derived GFP-expressing melanoma A375 and epidermoid carcinoma A431 cell lines were purchased from Angio-Proteomie (Boston, MA). Human melanoma carcinoma SK-MEL-28 and human immortalised keratinocytes (HaCaT) cell lines were acquired from American Type Culture Collection (ATCC; Manassas, VA). […] The growth media of incubated cells were changed every 2–3 days until they attained 70–80% confluence, after which they were sub-cultured for experiments and re-passaging. DMSO was used as the vehicle to prepare a 10 mM stock solution of the test compounds.
(§5) Stock solutions (10 mM) were prepared by dissolving each compound to be screened in DMSO.

SK-MEL-28 [1] = assay: Immunoblotting of apoptosis markers, SK-MEL-28; conditions: western blot, 48 h, vs untreated
Experimental: Immunoblotting was performed according to standard procedures of the Bio-Rad electrophoresis system (Bio-Rad, Hercules, CA) as described earlier. Briefly, protein extracts were obtained by lysing cells in RIPA buffer containing protease inhibitors, and were resolved by 4–12% polyacrylamide ready mini-PROTEAN TGX gel electrophoresis with sodium dodecyl sulphate (SDS) running buffer. Gels were electrotransferred to 0.45 μm nitrocellulose membranes (Bio-Rad, Hercules, CA) in Tris-glycine (TG) buffer using a Trans-Blot Turbo Transfer Pack according to manufacturer’s instructions. Membranes were incubated for 1 h in 5–7% non-fat powdered milk dissolved in TBST (Tris-buffered saline containing 0.05% Tween 20) or 5% BSA for phosphorylated proteins, to saturate nonspecific binding sites, followed by an overnight incubation (4 °C) with primary antibodies. Membranes were washed 5× with TBST and treated with suitable HRP-conjugated secondary antibodies (Amersham Life Science Inc., Arlington Height, IL) for another 2 h at room temperature, followed by additional wash steps and chemiluminescence-based detection with the Amersham ECL Prime detection reagent kit and the Bio-Rad Quantity One ChemiDoc™ detection and imaging analysis software systems as described earlier[108]^,[109].

A431 [2] = assay: Scratch wound healing assay, A431; conditions: 0, ½IC50, IC50, 1½IC50; 48 h; vs untreated control
Experimental: (§6) The scratch wound healing assay was performed to evaluate compound P25’s ability to limit cell migration and scratch wound closure following our previously described protocol. Briefly, cells were seeded in wells of a 24-well plate and incubated to 100% confluent monolayer, following which a sterile 200 µL Gilson pipette tip was used to scratch a straight line across the centre. […] The wounded and re-epithelialisation areas were imaged at 0 h, 24 h, and 48 h using an inverted phase-contrast Olympus IX51 microscope (Olympus America Inc., Center Valley, PA) attached to an Infinity 2 digital camera. Images were processed with an Infinity analysis software version 6.5.6 (Teledyne Lumenera, Ottawa, Canada) and analysed with Adobe Photoshop. The ImageJ software (NIH, Bethesda, MD) was used to measure the migratory area of each treatment group, with results expressed as remaining percentage of unfilled wound surface at 0 h[108].

A431 [3] = assay: Colony formation assay, A431; conditions: 0, ½IC50, IC50, 1½IC50; 14 days; vs untreated control
Experimental: Cells were then trypsinised, and 1000 viable cells from each treated group were seeded on […] in 10 mL of the medium, and incubated for an additional 14 days before fixation and crystal violet staining, imaging, and colonies assessment as previously described[109]^,[116]. The plates were scanned, and the area of clones was quantified with the free software Image J (Bethesda, MD) (https://imagej.nih.gov/ij/).

GFP-A431 = assay: MTT antiproliferative/cytotoxicity assay, A431; conditions: Homo sapiens, A-431, 48 h, non-melanoma, MTT, 48 h; read-out: IC50 GFP-A431
Experimental: as §4, §5

HaCaT = assay: MTT cytotoxicity assay, noncancerous HaCaT keratinocytes; conditions: Homo sapiens, HaCaT; control noncancerous keratinocytes, MTT, 48 h; read-out: IC50 HaCaT
Experimental: as §1, §2, §3

SK-MEL-28 [4] = assay: Scratch wound healing assay, SK-MEL-28; conditions: 0, ½IC50, IC50, 1½IC50; 48 h; vs untreated control
Experimental: as §6

SMILES: O=C1CC(c2ccccc2)=NN1c1ccc(Br)cc1 [P25]
- IC50 (A375): 14.3 ± 0.9 µM
- IC50 (SCC-12; Homo sapiens, SCC12, 48 h, non-melanoma, MTT, 48 h, read-out: IC50 SCC-12): 12.2 ± 0.6 µM
- selectivity index (SI) SCC-12 (SCC-12; IC50 HaCaT divided by IC50 SCC-12): ~2.5
- activated caspase-3, caspase-9 and cleaved PARP levels, SK-MEL-28 (SK-MEL-28 [1]; concentration-dependent): substantially increased levels
- anti-apoptotic Bcl-2 protein levels, SK-MEL-28 (SK-MEL-28 [1]): corresponding decreases
- pro-apoptotic Bax expression, SK-MEL-28 (SK-MEL-28 [1]): dose-dependent amplified expression
- scratch wound closure / migration, A431 (A431 [2]): significantly and dose-dependently decreased the scratch wound areas
- colony formation, A431 (A431 [3]): significant concentration-dependent reductions in the relative percentage of colonies formed
- IC50 (GFP-A431): 3.7 ± 0.5 µM
- IC50 (HaCaT): 30.5 ± 2 µM
- scratch wound closure / migration, SK-MEL-28 (SK-MEL-28 [4]): significantly and dose-dependently decreased the scratch wound areas
